In patent US10925923B2, “Peptide having anti-inflammatory activity, and use thereof” (CAREGEN CO., LTD., priority 2016, dated 2021):
Where no end group is shown, it is not given here.

How the values were obtained:
TNF-α [1] = assay: ELISA (splenocytes), TNF-α secretion; type: cell-based, mice; details: LPS stimulator, 48 hours
Method: (§1) The splenocytes treated with the peptide samples and the stimulator LPS in example 1 were incubated for 48 hours, and then the culture media were collected. The obtained media were subjected to an experiment using an ELISA kit (R&D system) for cytokines (TNF-α and INF-γ) to be investigated.

Raw264.7 cells = assay: FACS intracellular ROS assay (DCF-DA); type: cell-based; details: pre-treated at 1, 10, 50 ug/ml, then LPS
Method: Raw264.7 cells were seeded at 1×10^6 cells/6-well, and incubated overnight. The cells were pre-treated with samples to be investigated at 1, 10, and 50 ug/ml, and after 30 minutes, the cells were treated with LPS. The cells were incubated according to the scheduled time point, and then 30 minutes after the treatment with DCF-DH, the oxidation activity was measured by the degree of fluorescence using FACS.

COX2 = assay: Western blot of COX2 in splenocytes; type: cell-based, mice; details: peptide 0.2-20 ug/ml, 24 hours
Method: The splenocytes obtained in example 1 were seeded in 24-well plate at cell density of 1×10^7 cells/well. Then, after incubation overnight, the cells were treated with the peptides of SEQ ID NO: 1, SEQ ID NO: 2 and SEQ ID NO: 3 with different concentrations (0.2-20 ug/ml), followed by incubation in an incubator at 37° C. for 24 hours, and then the cells were treated with cell lysis buffer to secure lysate, followed by protein quantification. Then, western blotting with respect to the inflammation inducing factor COX2 was conducted, and the results are shown in FIGS. 2a to 2f.

IL-2 = IL-2 RT-PCR in LPS-stimulated splenocytes; type: cell-based, mice; details: mouse splenocytes, LPS stimulator, peptide 0.2, 2, 20 ug/ml
INF-γ = assay: ELISA (splenocytes), INF-γ secretion; type: cell-based, mice; details: LPS stimulator, 48 hours
Method: as §1

TNF-α [2] = assay: TNF-α RT-PCR in LPS-stimulated splenocytes; type: cell-based, mice; details: mouse splenocytes, LPS stimulator, peptide 0.2, 2, 20 ug/ml
Method: [The procedure below names another target; the source lists this target under the same test.] After 6-7-week-old mice were sacrificed to obtain spleen, the spleen was crushed using a cell filter, and centrifuged with serum-free RPMI 1640 medium. The upper layer was discarded, and for removal of red blood cells (RBC), RBC lysis buffer was used.
RBC was removed twice, followed by washing with serum-free RPMI1640 medium, and then an appropriate amount of serum-free RPMI1640 medium was added.
The cells were counted, and seeded in 96-well plate (1×10^6 cells/well) and 24-well plate (1×10^7 cells/dish). The next day, the cells were treated with respective peptide samples (0.2, 2, 20 ug/ml) and the stimulator LPS. Here, the experiment was performed by adjusting the time point.
Total RNA was extracted using Easy Blue (Intron). For synthesis of single-stranded DNA from RNA, RT premix (Intron) was used, and 3 ug of RNA, 2 ug of random hexamer, and DEPC-treated water were added thereto to reach a total volume of 20 ul, followed by reaction for 5 minutes at 65° C. and 1 hour at 42° C. Heating was again conducted at 95° C. for 5 minutes to prepare cDNA.
PCR was conducted by mixing 3 ul of cDNA and 10 pmole primers specific to CGI 58 gene with PCR premix (Intron). PCR conditions were: 94° C. for 30 seconds, 55-56° C. for 30 seconds, and 72° C. for 30 seconds. Genes were analyzed in the conditions in which the PCR results could be exponentially amplified. 5 ul of PCR product was obtained, electrophoresed on 1% agarose gel, and stained with ethidium bromide.

TNF-α [3] = assay: ELISA (Raw264.7 cells), TNF-α secretion; type: cell-based; details: pre-treated at 0.2, 2, 20 ug/ml, then LPS, 24 hours
Method: Raw264.7 cells were seeded at 1×10^6 cells/48-well, and incubated overnight. The cells were pre-treated with samples to be investigated at 0.2, 2, and 20 ug/ml, and after 30 minutes, the cells were treated with LPS. Incubation was conducted at the scheduled time point. After 24 hours, the culture media were collected, and the obtained media were subjected to an experiment using an ELISA kit (R&D system) for cytokine (TNF-α) to be investigated.

CD3+ and CD25+ cells = assay: Activation T cell analysis (FACS), CD3 and CD25 markers; type: cell-based, mice; details: splenocytes, LPS stimulator, 24 hours
Method: The cells were treated with the peptide samples and the stimulator LPS as described in example 1, and after 24 hours, the cells were treated with antibody (CD3 and CD25) activation T cell markers for 30 minutes, followed by washing twice with PBS, and then FACS was conducted.

Asp-Asn-Cys-Leu-Arg (DNCLR) [SEQ ID NO: 2]
secretion of TNF-α in splenocytes (ELISA) (TNF-α [1]): decreased | ROS production (Raw264.7 cells): reduced | expression of COX2 (western blot) (COX2): reduced | expression of IL-2 (RT-PCR) (IL-2): tend to decrease | secretion of INF-γ in splenocytes (ELISA) (INF-γ): decreased | expression of TNF-α (RT-PCR) (TNF-α [2]): tend to decrease | secretion of TNF-α in RAW264.7 cells (ELISA) (TNF-α [3]): tended to decrease | CD3+ and CD25+ cells (FACS) (CD3+ and CD25+ cells): decreased

Thr-Met-Arg-Asp (TMRD) [SEQ ID NO: 1]
secretion of TNF-α in splenocytes (ELISA) (TNF-α [1]): decreased | ROS production (Raw264.7 cells): reduced | expression of COX2 (western blot) (COX2): reduced | expression of IL-2 (RT-PCR) (IL-2): tend to decrease | secretion of INF-γ in splenocytes (ELISA) (INF-γ): decreased | expression of TNF-α (RT-PCR) (TNF-α [2]): tend to decrease | secretion of TNF-α in RAW264.7 cells (ELISA) (TNF-α [3]): tended to decrease | CD3+ and CD25+ cells (FACS) (CD3+ and CD25+ cells): decreased

GVQHQASPY [SEQ ID NO: 3]
ROS production (Raw264.7 cells): reduced | expression of COX2 (western blot) (COX2): reduced | expression of IL-2 (RT-PCR) (IL-2): tend to decrease | expression of TNF-α (RT-PCR) (TNF-α [2]): tend to decrease | secretion of TNF-α in RAW264.7 cells (ELISA) (TNF-α [3]): decreased | CD3+ and CD25+ cells (FACS) (CD3+ and CD25+ cells): decreased
